Patent US10934298B2, “Substituted pyrazolo[1,5-a]pyrimidines for the treatment of medical disorders” (BIAL—BioTech Investments, Inc., priority 2016, dated 2021)

Molecular target: T1, glucocerebrosidase (Gcase) (Homo sapiens, UniProt P04062)
T1 construct: micellar solution containing 10 nM GCase and 100 nM saposin C
T1 sequence (P04062 40-536): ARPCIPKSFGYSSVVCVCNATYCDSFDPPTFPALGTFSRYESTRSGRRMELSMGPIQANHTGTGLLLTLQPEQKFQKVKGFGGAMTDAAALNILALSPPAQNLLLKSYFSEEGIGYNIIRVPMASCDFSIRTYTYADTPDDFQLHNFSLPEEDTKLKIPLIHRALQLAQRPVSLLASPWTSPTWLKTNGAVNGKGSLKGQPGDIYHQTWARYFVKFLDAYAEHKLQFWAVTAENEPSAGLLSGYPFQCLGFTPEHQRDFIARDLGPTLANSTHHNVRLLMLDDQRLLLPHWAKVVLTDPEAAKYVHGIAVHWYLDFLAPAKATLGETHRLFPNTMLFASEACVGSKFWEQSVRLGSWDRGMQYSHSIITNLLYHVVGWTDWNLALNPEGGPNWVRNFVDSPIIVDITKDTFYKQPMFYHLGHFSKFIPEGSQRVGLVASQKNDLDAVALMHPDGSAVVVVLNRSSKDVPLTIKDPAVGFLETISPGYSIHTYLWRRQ
Assay: Glucocerebrosidase (Gcase) activation assay with 4-methylumbelliferyl-beta-D-glucopyranoside substrate, saposin C and phosphatidylserine/triton micelles, fluorescence readout
Assay type: biochemical
Settings: Table 3A
Description: The ability of exemplary compounds to activate glucocerebrosidase (Gcase) was measured.
A 484 μL aliquot of a 1.0 mg/mL solution of phosphatidylserine (PS) (Sigma P7769) in chloroform was evaporated under a stream of nitrogen for 1 hour. The lipid film was dissolved over 4 minutes of vigorous vortexing in 40 mL of 176 mM K2HPO4/50 mM citric acid (pH 4.7) containing 7.5 μL of triton X-100, resulting in a mixed micellar preparation with a composition of 0.32 mM triton and 0.37 mol % PS. 4-Methylumbelliferyl-beta-D-glucopyranoside (ACROS-337025000) was dissolved in the micellar solution to a final concentration of 2 mM for use as the reaction substrate.
Test compounds were diluted to the desired concentrations with dimethylsulfoxide (DMSO) from 10 mM stocks, and 0.41 μL of the DMSO compound mixture was added to 100 μL of micellar solution containing 10 nM GCase and 100 nM saposin C (Enzo ALX-201-262-C050). Pre-incubation was allowed to occur for 30 minutes at room temperature, after which the reaction was initiated by combining 25 μL of substrate solution with 25 μL of compound/GCase/saposin mixture. The reaction proceeded for 15 minutes at room temperature and was stopped by adding 150 μL of 1M glycine, pH 12.5. The endpoint of the reaction was monitored by measuring fluorescence intensity (excitation: 365 nm; emission: 440 nm) on a SpectraMax i3 instrument (Molecular Devices). Test compounds were screened at 1.0 and 0.1 μM final concentration, and subsequent 8-point dose response curves were obtained using 3-fold dilutions from a maximum final concentration of 5 μM.

Structure (SMILES)	Percent Gcase Activation, 0.1 μM Test Compound	Percent Gcase Activation, 1 μM Test Compound
Cc1cc(C)n2ncc(C(=O)N[C@@H](C)C3CC3)c2n1 [III-1]	* (less than 10% Gcase activation)	++ (Gcase activation in the range of 30% up to 60%)
Cc1cc(C)n2ncc(C(=O)NC(C)(C)C3CC3)c2n1 [III-2]	** (Gcase activation in the range of 10% up to 20%)	+++ (Gcase activation greater than 60%)
Cc1cc(C)n2ncc(C(=O)NC(CC(C)C)C3CC3)c2n1 (stereo not shown) [III-5]	*** (greater than 20% Gcase activation)	+++ (Gcase activation greater than 60%)
CNc1cc(C)n2ncc(C(=O)N[C@@H](C)C3CC3)c2n1 [III-6]	* (less than 10% Gcase activation)	++ (Gcase activation in the range of 30% up to 60%)
Cc1cc(-c2ccc(F)cc2)nc2c(C(=O)N[C@@H](C)C3CC3)cnn12 [III-7]	** (Gcase activation in the range of 10% up to 20%)	+++ (Gcase activation greater than 60%)
Cc1cc(C)n2ncc(C(=O)NC(C3CC3)C(F)(F)F)c2n1 (stereo not shown) [III-9]	** (Gcase activation in the range of 10% up to 20%)	+++ (Gcase activation greater than 60%)
Cc1cc(C)n2ncc(C(=O)N[C@H](C3CC3)C(F)(F)F)c2n1 [III-10]	** (Gcase activation in the range of 10% up to 20%)	+++ (Gcase activation greater than 60%)
Cc1cc(C)n2ncc(C(=O)N[C@@H](C3CC3)C(F)(F)F)c2n1 [III-11]	** (Gcase activation in the range of 10% up to 20%)	+++ (Gcase activation greater than 60%)
Cc1cc(C)n2ncc(C(=O)NC3(C4CC4)CC3)c2n1 [III-12]	* (less than 10% Gcase activation)	+ (less than 30% Gcase activation)
Cc1cc(C)n2ncc(C(=O)NC(C)(C)C3CC4(CCC4)C3)c2n1 [III-13]	*** (greater than 20% Gcase activation)	+++ (Gcase activation greater than 60%)
Cc1cc(Cl)n2ncc(C(=O)NC(C)(C)C3CC3)c2n1 [III-14]	** (Gcase activation in the range of 10% up to 20%)	++ (Gcase activation in the range of 30% up to 60%)
Cc1cc(Cl)nc2c(C(=O)NC(C)(C)C3CC3)cnn12 [III-15]	*** (greater than 20% Gcase activation)	+++ (Gcase activation greater than 60%)
Cc1cc(-c2ccccn2)nc2c(C(=O)NC(C)(C)C3CC3)cnn12 [III-16]	** (Gcase activation in the range of 10% up to 20%)	+++ (Gcase activation greater than 60%)
Cc1cc(-c2ccccn2)n2ncc(C(=O)NC(C)(C)C3CC3)c2n1 [III-17]	* (less than 10% Gcase activation)	+ (less than 30% Gcase activation)
Cc1cc(-c2cccnc2)nc2c(C(=O)NC(C)(C)C3CC3)cnn12 [III-18]	** (Gcase activation in the range of 10% up to 20%)	+++ (Gcase activation greater than 60%)
Cc1cc(-c2cccnc2)n2ncc(C(=O)NC(C)(C)C3CC3)c2n1 [III-19]	* (less than 10% Gcase activation)	+ (less than 30% Gcase activation)
Cc1cc(-c2ccncc2)nc2c(C(=O)NC(C)(C)C3CC3)cnn12 [III-20]	* (less than 10% Gcase activation)	+++ (Gcase activation greater than 60%)
Cc1cc(N2CCCCC2)n2ncc(C(=O)NC(C)(C)C3CC3)c2n1 [III-22]	* (less than 10% Gcase activation)	++ (Gcase activation in the range of 30% up to 60%)
Cc1cc(N2CCCCC2)nc2c(C(=O)NC(C)(C)C3CC3)cnn12 [III-23]	*** (greater than 20% Gcase activation)	+++ (Gcase activation greater than 60%)
Cc1cc(-c2ccncc2)nc2c(C(=O)NC(C)C3CC3)cnn12 (stereo not shown) [III-28]	* (less than 10% Gcase activation)	++ (Gcase activation in the range of 30% up to 60%)
Cc1cc(N2CCCCC2)n2ncc(C(=O)N[C@@H](C)C3CC3)c2n1 [III-30]	* (less than 10% Gcase activation)	+ (less than 30% Gcase activation)
Cc1cc(N2CCCCC2)nc2c(C(=O)NC(C)C3CC3)cnn12 (stereo not shown) [III-31]	*** (greater than 20% Gcase activation)	+++ (Gcase activation greater than 60%)
Cc1cc(-c2ccc(F)cc2)nc2c(C(=O)N[C@@H](C)C3CC3)c(Cl)nn12 [III-32]	** (Gcase activation in the range of 10% up to 20%)	+++ (Gcase activation greater than 60%)
Cc1cc(-c2ccc(F)cc2)n2nc(Cl)c(C(=O)N[C@@H](C)C3CC3)c2n1 [III-33]	* (less than 10% Gcase activation)	++ (Gcase activation in the range of 30% up to 60%)
Cc1cc(C)n2nc(Cl)c(C(=O)N[C@@H](C)C3CC3)c2n1 [III-34]	* (less than 10% Gcase activation)	+ (less than 30% Gcase activation)

The next lines start with the values.

Percent Gcase Activation, 0.1 μM Test Compound	Percent Gcase Activation, 1 μM Test Compound	Structure (SMILES)
*** (greater than 20% Gcase activation)	+++ (Gcase activation greater than 60%)	Cc1cc(C)n2ncc(C(=O)N[C@H](C)C3CCCCC3)c2n1 [III-3]
*** (greater than 20% Gcase activation)	+++ (Gcase activation greater than 60%)	Cc1cc(C)n2ncc(C(=O)N[C@@H](C)C3CCCCC3)c2n1 [III-4]
* (less than 10% Gcase activation)	+ (less than 30% Gcase activation)	Cc1cc(-c2ccc(F)cc2)n2ncc(C(=O)N[C@@H](C)C3CC3)c2n1 [III-8]
* (less than 10% Gcase activation)	+ (less than 30% Gcase activation)	Cc1cc(-c2ccncc2)n2ncc(C(=O)NC(C)(C)C3CC3)c2n1 [III-21]
* (less than 10% Gcase activation)	+ (less than 30% Gcase activation)	Cc1cc(-c2ccccn2)n2ncc(C(=O)N[C@@H](C)C3CC3)c2n1 [III-25]
* (less than 10% Gcase activation)	+ (less than 30% Gcase activation)	Cc1cc(-c2cccnc2)n2ncc(C(=O)N[C@@H](C)C3CC3)c2n1 [III-27]
* (less than 10% Gcase activation)	+ (less than 30% Gcase activation)	Cc1cc(-c2ccncc2)n2ncc(C(=O)N[C@@H](C)C3CC3)c2n1 [III-29]
